# Measured values: US11873287B2, “Piperidine-2,6-dione derivatives and ulcerative colitis treating” (TIANJIN HEMAY PHARMACEUTICAL SCI-TECH CO., LTD, priority 2016, dated 2024)
# Legend:
# [1] = test system: DSS-Induced inflammatory Bowel Disease Models in Mice; test: DSS-induced inflammatory bowel disease model in mice (Biological Example 5, 1.3% DSS); type: in vivo, C57BL/6 mice; settings: 30 mg/Kg i.g. Q.D, 1.3% DSS days 0-5
# Procedure: (§1) 40 healthy female C57BL/6 mice having weight of 16-19 g were randomly divided into 4 groups in accordance with weight. There were 10 mice in each group (see Table 6 below). The first day of the experiment was recorded as Day 0. The administration regimen and induction regimen were detailed in Table 6. The change in weight of experimental animals was recorded every day. […] Samples of animal colonic tissues were obtained to measure the length. One-way ANOVA analysis of mice weights was performed by SPSS22. Statistical analyses between groups were performed. Mann-Whitney U non-parametric test was performed on the length of colon.
# (§2) The experimental method used in the present biological example is identical to those in Biological Example 3.
# One-way ANOVA analysis of mice body weights and colonic weights per length was performed by SPSS22. Statistical analyses between groups were performed.
# (§3) Calculation Formula of Inhibitory Rate of Colonic Reduction: (Length of Colon in Administration Group−Length of Colon in Model Group)/(Length of Colon in Blank Group−Length of Colon in Model Group)
# [2] = test system: DSS-Induced inflammatory Bowel Disease Models in Mice; test: DSS-induced inflammatory bowel disease model in mice (Biological Example 3, 1.0-1.5% DSS); type: in vivo, C57BL/6 mice; settings: 30 mg/Kg i.g. Q.D
# Procedure: as §1, §3
# [3] = test system: ICR mice; test: Acute toxicity experiment of single oral administration in mice; type: in vivo; settings: 1000 mg/Kg single oral dose
# Procedure: The mice were fasted one day before the experiment. On the day of the experiment, 6 mice (ICR mice, body weight of 19-21 g, three females and three males) were selected in each experiment group. First of all, one female and one male were selected to orally give 1000 mg/Kg, and observed for 5-10 minutes. If there were no obvious side effects, the remaining 4 animals were orally given the same dose, and observed for 10-15 minutes. If no animal died, the animals were placed in a box to balancedly feed for 7 days. The state was observed and the body weight was recorded daily.
# Observation Indexes within 0-15 Minutes After Administration
# Activity: restlessness, hyperactivity
# Nervous system response: tremor, spasm, convulsion, ataxia, posture abnormality, etc.
# Autonomic nerve: exophthalmos, salivation, tears, urination (hematuria), diarrhea, piloerection, breathing, etc.
# Observation Indexes Over 7 Days
# State of Animal: lethargy, hyperactivity, excitement, hair loss, diarrhea, abnormal behavior, death, etc.
# [4] = test system: DSS-Induced inflammatory Bowel Disease Models in Mice; test: DSS-induced inflammatory bowel disease model in mice (Biological Example 4, 1.3% DSS); type: in vivo, C57BL/6 mice; settings: 30 mg/Kg i.g. Q.D
# Procedure: as §1, §2, §3
# [5] = DSS 1.0% days 0-4, 1.5% days 5-9
compound,measurement,setting,value
"COCCN1C(=O)CCC(N2C(=O)c3ccc(OC)c(N)c3C2=O)C1=O (stereo not drawn) [Example 25, 4-amino-5-methoxy-2-(1-(2-methoxyethyl)-2,6-dioxopiperidin-3-yl)-isoindolin-1,3-dione]","Length (cm, Mean ± SD) of colon",[1],6.7 ± 0.5 cm
same,inhibition in vivo at 30 mg/kg,"[1]; Mus musculus, po, read-out: Inhibitory Rate of Colonic Reduction",81.8%
"COCCN1C(=O)CCC(N2C(=O)c3cccc(F)c3C2=O)C1=O (stereo not drawn) [Example 4, 4-fluoro-2-(1-(2-methoxyethyl)-2,6-dioxopiperidin-3-yl)isoindolin-1,3-dione]",body weights compared with model control group,[2],higher than that of the model control group
same,Average Length of Colon (Mean ± SD),[2]; [5],6.3 ± 0.3 cm
same,Inhibitory Rate of Colonic Reduction,[2]; [5],54.5%
same,Body Weights of Experimental Mice (Mean ± SD),[2]; Day 0,17.4 ± 1.3 g
same,Body Weights of Experimental Mice (Mean ± SD),[2]; Day 1,17.6 ± 1.1 g
same,Body Weights of Experimental Mice (Mean ± SD),[2]; Day 2,18.0 ± 0.9 g
same,Body Weights of Experimental Mice (Mean ± SD),[2]; Day 3,17.8 ± 1.0 g
same,Body Weights of Experimental Mice (Mean ± SD),[2]; Day 4,17.9 ± 0.9 g
same,Body Weights of Experimental Mice (Mean ± SD),[2]; Day 5,18.1 ± 1.1 g
same,Body Weights of Experimental Mice (Mean ± SD),[2]; Day 6,17.7 ± 0.9 g
same,Body Weights of Experimental Mice (Mean ± SD),[2]; Day 7,18.1 ± 0.9 g
same,Body Weights of Experimental Mice (Mean ± SD),[2]; Day 8,17.8 ± 0.8 g
same,Body Weights of Experimental Mice (Mean ± SD),[2]; Day 9,17.6 ± 0.8 g
same,Body Weights of Experimental Mice (Mean ± SD),[2]; Day 10,17.0 ± 0.7 g
same,Body Weights of Experimental Mice (Mean ± SD),[2]; Day 11,16.7 ± 0.7 g
same,Body Weights of Experimental Mice (Mean ± SD),[2]; Day 12,17.0 ± 0.9 g
same,Daily Body Weight of Tested Female Mice (Mean ± SD),[3]; Day 1,18.4 ± 0.4 g
same,Daily Body Weight of Tested Male Mice (Mean ± SD),[3]; Day 1,17.6 ± 0.2 g
same,Daily Body Weight of Tested Female Mice (Mean ± SD),[3]; Day 2,21.8 ± 0.5 g
same,Daily Body Weight of Tested Male Mice (Mean ± SD),[3]; Day 2,22.2 ± 0.3 g
same,Daily Body Weight of Tested Female Mice (Mean ± SD),[3]; Day 3,23.2 ± 0.6 g
same,Daily Body Weight of Tested Male Mice (Mean ± SD),[3]; Day 3,23.6 ± 0.6 g
same,Daily Body Weight of Tested Female Mice (Mean ± SD),[3]; Day 4,23.5 ± 1.2 g
same,Daily Body Weight of Tested Male Mice (Mean ± SD),[3]; Day 4,24.7 ± 0.6 g
same,Daily Body Weight of Tested Female Mice (Mean ± SD),[3]; Day 5,24.7 ± 0.9 g
same,Daily Body Weight of Tested Male Mice (Mean ± SD),[3]; Day 5,26.7 ± 0.4 g
same,Daily Body Weight of Tested Female Mice (Mean ± SD),[3]; Day 6,24.2 ± 1.2 g
same,Daily Body Weight of Tested Male Mice (Mean ± SD),[3]; Day 6,27.6 ± 0.8 g
same,Daily Body Weight of Tested Female Mice (Mean ± SD),[3]; Day 7,24.0 ± 0.8 g
same,Daily Body Weight of Tested Male Mice (Mean ± SD),[3]; Day 7,28.2 ± 0.1 g
"CCOCCN1C(=O)CCC(N2C(=O)c3cccc(N)c3C2=O)C1=O (stereo not drawn) [Example 19, 4-amino-2-(1-(2-ethoxyethyl)-2,6-dioxopiperidin-3-yl)isoindolin-1,3-dione]",Average Length of Colon (Mean ± SD),[4]; 1.3% DSS days 0-5,6.9 ± 0.4 cm
same,Inhibitory Rate of Colonic Reduction,[4]; 1.3% DSS days 0-5,66.7%
same,Weights of Experimental Mice (Mean ± SD),[4]; Day 0,19.6 ± 0.7 g
same,Weights of Experimental Mice (Mean ± SD),[4]; Day 1,19.6 ± 0.8 g
same,Weights of Experimental Mice (Mean ± SD),[4]; Day 2,19.7 ± 0.7 g
same,Weights of Experimental Mice (Mean ± SD),[4]; Day 3,19.9 ± 0.7 g
same,Weights of Experimental Mice (Mean ± SD),[4]; Day 4,20.0 ± 0.7 g
same,Weights of Experimental Mice (Mean ± SD),[4]; Day 5,19.7 ± 0.5 g
same,Weights of Experimental Mice (Mean ± SD),[4]; Day 6,19.2 ± 0.7 g
same,Weights of Experimental Mice (Mean ± SD),[4]; Day 7,18.9 ± 0.8 g
same,Weights of Experimental Mice (Mean ± SD),[4]; Day 8,19.0 ± 1.0 g
same,Weights of Experimental Mice (Mean ± SD),[4]; Day 9,19.4 ± 0.8 g
same,Daily Body Weight of Tested Female Mice (Mean ± SD),[3]; Day 1,18.0 ± 0.6 g
same,Daily Body Weight of Tested Male Mice (Mean ± SD),[3]; Day 1,18.9 ± 1.2 g
same,Daily Body Weight of Tested Female Mice (Mean ± SD),[3]; Day 2,20.7 ± 1.1 g
same,Daily Body Weight of Tested Male Mice (Mean ± SD),[3]; Day 2,20.7 ± 1.1 g
same,Daily Body Weight of Tested Female Mice (Mean ± SD),[3]; Day 3,21.3 ± 0.6 g
same,Daily Body Weight of Tested Male Mice (Mean ± SD),[3]; Day 3,21.3 ± 0.6 g
same,Daily Body Weight of Tested Female Mice (Mean ± SD),[3]; Day 4,22.8 ± 0.3 g
same,Daily Body Weight of Tested Male Mice (Mean ± SD),[3]; Day 4,25.0 ± 2.0 g
same,Daily Body Weight of Tested Female Mice (Mean ± SD),[3]; Day 5,23.2 ± 0.7 g
same,Daily Body Weight of Tested Male Mice (Mean ± SD),[3]; Day 5,24.8 ± 1.9 g
same,Daily Body Weight of Tested Female Mice (Mean ± SD),[3]; Day 6,23.3 ± 1.2 g
same,Daily Body Weight of Tested Male Mice (Mean ± SD),[3]; Day 6,26.5 ± 1.9 g
same,Daily Body Weight of Tested Female Mice (Mean ± SD),[3]; Day 7,23.0 ± 1.7 g
same,Daily Body Weight of Tested Male Mice (Mean ± SD),[3]; Day 7,27.7 ± 2.2 g
same,Summary of toxic response of tested animals in 7 Days,[3]; Female,Severe motor dysfunction in three animals was observed 30
same,Summary of toxic response of tested animals in 7 Days,[3]; Male,Severe motor dysfunction in two animals was observed 30
